The text below walks through data of US20190231847A1, “TREATMENT OF OCULAR DISEASE” (priority 2016, published 2019).

Data set [1] has as its system neovascularisation induced by sutures in the cornea. Nature of the data set: Rat corneal suture model, Example 1 (blinded grading at day 6, images). In kind it is in vivo. As to conditions: subconjunctival injection; 100 nM ALM201; Triamcinolone positive control. The procedure:
To assess the action of ALM201 (SEQ ID NO:3) on the ocular surface, the ability to halt vessel growth was measured. Vessel growth was stimulated through a well-accepted model (Shi et al., 2011) whereby a suture was placed in the central cornea of rat eyes (FIG. 1). We have shown the rat eye is similar anatomically to the human eye (Moore J E, McMullen C B, Mahon G and Adamis A P. The corneal epithelial stem cell. DNA Cell Biol. 2002; 21(5-6):443-51; incorporated herein by reference).
The experimental groups were: • Subconjunctival injection of peptide (5 rats), control group (5 rats) and positive control group (5 rats) • Intrastromal injection of peptide (5 rats), control group (5 rats) and positive control group (5 rats) • Topical application of peptide (5 rats), control group (5 rats) and positive control group (5 rats)
A suture was placed in the central cornea of one eye of each animal while the control eye remained untouched. For the injection groups, peptide was added to the rat's eyes at day 0, day 3, and day 6. For the topical application group, peptide and the positive control was added daily. Each day after suture, rats were monitored for vessel growth and photographed using a Hawk Eye Portable Digital Slit Lamp (Dioptrix, France) and inverted microscope (Nikon's E600FN; Surrey, UK). At a time point when a difference is noted (e.g. day 6) between untreated and peptide treated animals, they received 8 μg/g tail vein injections of an endothelial-specific fluorescein-conjugated lectin (Lycopersicon esculentum; Vector Laboratories, Burlingame, Calif.). Thirty minutes later, the eyes were harvested and fixed with 10% neutral buffered formalin for 24 hours. The corneas were isolated and flat-mounted on glass slides. The fluorescence in the perfused vessels was captured using a Leica SP5 multiphoton microscope (Milton Keynes, UK). Vessel formation within tagged information file format (.tiff) files was measured by visualization with Image J (Rasband, 1997-2014).
At day 6 all rats were graded by an opthalmologist blinded to the treatment. Grading scales were as follows:
Vessel distance from suture: 0=no reach; 1=small distance; 2=moderate distance; 3=¾ of the way; 4=reached sutures;
Vessel density grading: 0=no density; 1=mild; 2=moderate; 3=high Inflammation grading: 0=none; 1=minimal; 2=moderate; 3=severe;

The nature of data set [2]: Bodyweight of EAU mice during the course of treatment. As to conditions: Dexamethasone 0.5 mg/kg p.o.; ALM201 0.3 mg/kg i.p.+Dexamethasone 0.5 mg/kg p.o.
From the text: Bodyweight (BW) of each mouse was monitored daily during the course of treatment.
The next data set concerns retinal inflammation. Nature of the data set: Mouse experimental autoimmune uveitis (EAU) model, clinical score from fundus images (TEFI).
Setting [3] is: Dexamethasone 0.5 mg/kg p.o. once daily day 14-24 p.i., 10 mice.

Molecules are shown by their SMILES.

Method for retinal inflammation: The effect of ALM201 on autoimmune uveitis was tested in a mouse model of experimental autoimmune uveitis (EAU).
All mice were maintained in a normal experimental room and exposed to a 12-hour-dark-12-hour light cycle.
An additional 1 mg Bordetella pertussis toxin (Tocris Bioscience, Bristol, UK) was administered intraperitoneally immediately after peptide injection.
Mouse pupils were dilated with 1% atropine sulphate and 2.5% phenylephrine hydrochloride (Chauvin, Essex, UK). The animals were anaesthetised by isofluorane. […] Clinical score of retinal inflammation was accessed using the criteria described previously by us (Xu et al. 2008a).
Ten mice were assigned into each group.
All animals were treated for 10 days from day 14 to 24 p.i.
Group 2: ALM201 0.3 mg/kg in 100 ml, i.p. injection, once daily.
Group 3: ALM201 3 mg/kg in 100 ml, i.p. injection, once daily.
Group 4: Dexamethasone 0.5 mg/kg in 100 ml, p.o. (gavage), once daily.
Group 5: ALM201 0.3 mg/kg in 100 ml, i.p. injection+Dexamethasone 0.5 mg/kg in 100 ml, p.o. (gavage) once daily.
Data (Clinical score and histological score) was expressed as mean±SD. One way ANOVA followed by the Tukey's Multiple Comparison Test was used to detect difference between all treatment groups. In addition, Mann-Whitney U test (two tails) was used to detect the difference between ALM201 or dexamethasone treated group and PBS control group. Paired Student's t test was used to compare clinical score before and after treatment.

Turning to `C[C@]12C=CC(=O)C=C1CC[C@H]1[C@@H]3C[C@@H](O)[C@](O)(C(=O)CO)[C@@]3(C)C[C@H](O)[C@@]12F` [Triamcinolone, reference compound], the “Vasculature in images (neovascularisation induced by sutures)” value in data set [1] is reported as “normal vasculature”.

For `C[C@@H]1C[C@H]2[C@@H]3CCC4=CC(=O)C=C[C@]4(C)[C@@]3(F)[C@@H](O)C[C@]2(C)[C@@]1(O)C(=O)CO` [Dexamethasone, reference compound], the “Bodyweight during the 10-day treatment period” value in data set [2] is given as “stable BW”. In the data set on retinal inflammation (setting [3]), the “No. of mice with decreased score” value came out at 3, the “No. of mice with increased score” value worked out at 3, the “No. of mice with increased score (%)” value was “(30%)” and the “No. of mice with no change” value came out at 4. Further, the “Average increment in EAU score” value in the data set on retinal inflammation (Dexamethasone 0.5 mg/kg, the 3 mice with increased score) turned out to be 0.80. The “Average reduction in EAU score” value with retinal inflammation (Dexamethasone 0.5 mg/kg, the 3 mice with reduced score) is 0.69.
